Test results published in the NIST ThermoML archive (doi:10.1016/j.jct.2019.01.027).
± gives the expanded uncertainty stated by the source.

Details: Liquid, Ebulliometric method (Recirculating still)

## Cc1ccc(C)cc1 [1,4-dimethylbenzene]
411.45 K
  vapor or sublimation pressure: 101.3 ± 1.2 kPa

## CC(=O)OCC(C)C [2-methylpropyl ethanoate]
389.55 K
  vapor or sublimation pressure: 101.3 ± 1.2 kPa

## CCCCOC(=O)CC [butyl propanoate]
418.35 K
  vapor or sublimation pressure: 101.3 ± 1.2 kPa

## COC(=O)OC [dimethyl carbonate]
363.35 K
  vapor or sublimation pressure: 101.3 ± 1.2 kPa

## CCO [ethanol]
351.45 K
  vapor or sublimation pressure: 101.3 ± 1.2 kPa
